Experimental data taken from patent US12295970B2, “Imidazoquinoline compounds and prodrugs thereof” (UNIVERSITY OF KANSAS, priority 2019, dated 2025).

Assays:
[1] = tested on: mast cell tumors; conditions: 86 canine patients (7 complete response and 25 partial response); cited from earlier work
[2] = tested on: canine PBMCs; assay: In vitro cytokine secretion assay in canine PBMCs (Example 3); type: cell-based; conditions: 15 hours, ELISA
Excerpt: As a TLR7/8 agonist, R848 binds to endosomal TLR7 and 8 receptors located on antigen presenting cells (APCs). The activation of APCs produces pro-inflammatory cytokines including TNF-α, type I IFN and IL-12. These cytokines, together with stimulated APCs that take up tumor antigens, enhance the activation of anti-tumor Th-1 immune responses that involve both CD4^+ T helper cells and CD8^+ cytotoxic T cells.^16 To evaluate the Th-1 associated cytokine production in vitro, isolated canine PBMCs were treated with R848, formulated or unformulated R848-Toco, and the secretion of TNF-α and IL-12 were measured by ELISA as markers of generalized inflammatory response. Canines were chosen as a model over mice because of the greater genetic similarity to humans and more similar immune systems.^46 Peripheral blood from healthy canine donors of 7-10 years age (similar to the age of typical canines with cancer^14) was obtained with appropriate informed consent of the owner. Blood (8 mL per tube) was drawn via sterile venipuncture into a BD Vacutainer cell preparation tube containing sodium heparin (BD Biosciences). PBMCs were isolated within one hour following procurement by density gradient centrifugation according to the manufacturer protocol and resuspended to 3×10^6 cells/mL in sterile RPMI 1640 medium with L-glutamine (Gibco) supplemented with 100 IU/mL penicillin, 100 μg/mL streptomycin (Corning) and 10% (v/v) heat-inactivated Fetalgro (RMBIO). Corning 3917, 96-well tissue culture treated plates were seeded with the PBMC suspension (180 μL/well), 20 μL of the serially diluted R848 samples were added in triplicate and HA-Toco vehicle in duplicate to yield the desired concentrations in a 1% (v/v) DMSO cell suspension. […] Sample cytokine concentrations were determined by interpolation of a four-parameter logistic curve of the recombinant standards using GraphPad Prism 6. […] Cytokine secretion levels were measured by ELISA (Duoset, R&D Systems, Minneapolis, MN, USA) according to the manufacturer protocol.

[3] = molecular target: T1, human TLR7 (hTLR7) (Homo sapiens, UniProt Q9NYK1); assay: In vitro TLR7 activity assay (HEK-Blue hTLR7, QUANTI-Blue, Example 3); type: cell-based; conditions: 16 h incubation; Null 1-k subtracted
T1 construct: host or cells: HEK-293 (HEK-Blue hTLR7)
T1 sequence (Q9NYK1 27-1049): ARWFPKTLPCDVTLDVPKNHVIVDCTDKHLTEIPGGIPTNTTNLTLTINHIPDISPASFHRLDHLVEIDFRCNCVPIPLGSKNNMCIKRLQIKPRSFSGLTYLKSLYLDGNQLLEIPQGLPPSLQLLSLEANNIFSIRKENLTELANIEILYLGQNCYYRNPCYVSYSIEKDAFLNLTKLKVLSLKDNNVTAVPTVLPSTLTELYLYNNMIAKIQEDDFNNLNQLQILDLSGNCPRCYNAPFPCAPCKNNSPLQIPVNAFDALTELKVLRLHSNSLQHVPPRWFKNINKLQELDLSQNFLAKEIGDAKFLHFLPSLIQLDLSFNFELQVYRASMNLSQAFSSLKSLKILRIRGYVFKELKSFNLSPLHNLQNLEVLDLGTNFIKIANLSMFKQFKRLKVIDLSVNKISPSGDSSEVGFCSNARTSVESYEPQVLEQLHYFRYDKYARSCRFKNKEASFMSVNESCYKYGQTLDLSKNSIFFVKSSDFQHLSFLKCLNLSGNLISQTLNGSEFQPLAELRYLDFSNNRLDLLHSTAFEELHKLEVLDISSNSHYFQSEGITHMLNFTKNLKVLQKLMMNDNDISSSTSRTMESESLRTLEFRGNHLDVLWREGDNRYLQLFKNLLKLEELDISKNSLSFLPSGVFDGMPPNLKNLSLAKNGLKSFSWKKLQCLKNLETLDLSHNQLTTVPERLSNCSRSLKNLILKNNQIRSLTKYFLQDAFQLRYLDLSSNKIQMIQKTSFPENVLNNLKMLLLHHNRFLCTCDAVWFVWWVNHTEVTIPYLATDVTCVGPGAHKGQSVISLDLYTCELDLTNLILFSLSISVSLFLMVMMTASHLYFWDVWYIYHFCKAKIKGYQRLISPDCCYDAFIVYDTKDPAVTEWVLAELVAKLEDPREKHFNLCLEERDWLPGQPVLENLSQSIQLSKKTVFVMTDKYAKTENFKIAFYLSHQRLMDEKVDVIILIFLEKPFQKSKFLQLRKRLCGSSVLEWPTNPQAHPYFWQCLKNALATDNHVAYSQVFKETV
Protocol: TLR agonist activity was measured in a dose-response study using reporter cell lines expressing the human TLR7 (hTLR7). […] The hTLR7 activity of R848-Toco, the formulation and its components were assessed using HEK-293 cells co-transfected with the hTLR7 gene and an inducible SEAP reporter gene along with the corresponding null control line (HEK-Blue™ hTLR7 and Null-1k cells, Invivogen). Cells were maintained in DMEM media with selective antibiotics according to the manufacturer protocol.^26 HEK-Blue™ cells were seeded into 96 well plates at a density of 220,000 cells/mL with 180 μL/well of culture medium. Stock solutions in DMSO were first serially diluted to seven concentrations (DMSO solutions further diluted into H2O). Each well was stimulated with 20 μL of agonists or agonist-free controls (equivalent concentration of HA-Toco, D-α-Tocopherol succinate, PBS or […] DMSO) at the determined final concentrations in 5 replicates. After 16 h of incubation at 37° C. in a 5% CO2 atmosphere, 20 μL of the supernatant from each well was sampled and spiked into 180 μL of QUANTI-Blue™ solution followed by incubation for 1 h at 37° C. Relative hTLR7 activity was then analyzed by UV-Vis at 637 nm using a microplate UV reader (SpectraMAX GeminiXS, Molecular Devices, San Jose, CA, USA). For each compound and concentration, a corresponding sample was applied to the HEK-Blue™ Null-1k cell line. The TLR7 agonist activity was determined after averaging across hTLR7 replications and subtracting the averaged Null response.
Activation levels were calculated as the difference between the average readings of the hTLR7 cell line and the Null 1-k cell line, to account for non-hTLR7 related induction of NF-κB. […] Therefore, this study confirmed that R848-Toco, formulated with HA-Toco as an emulsion, maintained its TLR agonist activity. […]

[4] = Solubility in water (in words); type: physicochemical
[5] = In vitro release kinetics (dialysis method); type: physicochemical
Protocol: Solutions (1 mL) of free R848 in DMSO, R848/HA-Toco in water, R848-Toco in DMSO, and R848-Toco/HA-Toco in water, with a concentration of 1 mg/mL on R848 basis were dialyzed using SnakeSkin® dialysis tubing (MWCO […]) against 30 mL of phosphate buffered saline release medium (PBS, 10 mM sodium phosphate, 137 mM NaCl, pH 7.4) with 0.5% (w/v) polysorbate 80 at 37° C. At predetermined time points, 1 mL aliquots of release medium were sampled and replaced with an equal volume of fresh medium. The samples were kept frozen (−20° C.) until HPLC analysis.
Results: The in vitro release profiles of R848 and R848-Toco from the HA-Toco were studied using a dialysis method. […] The release of parent R848 formulated with HA-Toco was tested in PBS media, with free R848 dissolved in DMSO as a control. Similar release kinetics were observed whether R848 was formulated with HA-Toco or without ([…]), and in both conditions nearly 100% of the agonist was released over 24 h (FIG. 4A).

[6] = Hydrolysis of R848-Toco; type: physicochemical
Protocol: For hydrolysis, R848-Toco (0.1 mg) was dissolved in 1 mL of DMSO, and the solution was added into 9 mL of hydrolysis media (PBS or 0.5% (w/v) polysorbate 80/PBS). The solution was then rapidly mixed and filtered using a syringe filter (0.22 μm×13 mm, nylon). The filtrate was then incubated at 37° C. under agitation (250 rpm). At predetermined time points, 50 μL of the solution was sampled and analyzed immediately by HPLC.

SMILES: Cc1[nH]c(/C=C2\C(=O)Nc3ccc(F)cc32)c(C)c1C(=O)NCCN1CCCC1.O=P(O)(O)O [toceranib phosphate]
- response rate [1]: 37.2%

SMILES: CCOCc1nc2c(N)nc3ccccc3c2n1CC(C)(C)OC(=O)CCC(=O)Oc1c(C)c(C)c2c(c1C)CC[C@@](C)(CCC[C@H](C)CCC[C@H](C)CCCC(C)C)O2 [Compound R848-Toco]
- IL-12 levels [2]: lower expression
- hTLR7 activation (NF-κB, in words) [3]: much less active
- solubility in water [4]: poorly soluble in water
- released over the first 24 h ([5]; 0.5% w/v polysorbate 80 solution of PBS): 76%
- release profile (in words) ([5]; PBS, pH 7.4): burst release within the first half hour
- hydrolyzed products observed by HPLC ([6]; hydrolysis sample at 8 h): R848, which was the only observed hydrolyzed product
- R848-Toco hydrolyzed to R848 ([6]; initial 8 h, 37° C.): 72%
